Five compounds from the NIST ThermoML archive (doi:10.1021/acs.jced.6b00695) can be followed below.

By surface tension liquid-gas is commonly meant the force per length acting along the surface. As a reminder, the viscosity is the resistance of a fluid to flow. Broadly, the speed of sound is how fast a sound wave travels through the sample. The term mass density denotes mass per unit of volume.

This data set in a line: mn = molality of the nth substance listed, in mol/kg. Conditions: for surface tension liquid-gas: Capillary rise; for viscosity / speed of sound / mass density: 100 kPa, Liquid; for viscosity: Capillary tube (Ostwald / Ubbelohde) method; for speed of sound: Sing-around technique in a fixed-path interferometer; for mass density: Vibrating tube method.

The structures appear in SMILES notation. ± gives the expanded uncertainty stated by the source.

`OC[C@H]1O[C@@](CO)(O[C@H]2O[C@H](CO)[C@@H](O)[C@H](O)[C@H]2O)[C@@H](O)[C@@H]1O` [D-sucrose] + O: where the note is “298.15 K, m1 = 1.27”, the surface tension liquid-gas is on record as 42.79 ± 0.7 mN/m, the viscosity was 2.727 ± 0.018 mPa·s, the speed of sound stood at 1607.8 ± 1.1 m/s and the mass density stood at 1127.29 ± 0.25 kg/m3. Under “303.15 K, m1 = 1.27”, the surface tension liquid-gas is 42.13 ± 0.7 mN/m, the viscosity was determined as 2.386 ± 0.016 mPa·s, the speed of sound amounted to 1615.4 ± 1.1 m/s and the mass density was 1125.29 ± 0.25 kg/m3. Where the note is “308.15 K, m1 = 1.27”, the surface tension liquid-gas worked out at 40.87 ± 0.7 mN/m, the viscosity worked out at 2.085 ± 0.014 mPa·s, the speed of sound came to 1621.8 ± 1.1 m/s and the mass density came out at 1123.11 ± 0.25 kg/m3.

`O=C(O)CC(O)(CC(=O)O)C(=O)O` [citric acid] + O: where the note is “298.15 K, m1 = 0.005”, the surface tension liquid-gas turned out to be 71.6 ± 0.69 mN/m, the viscosity is 0.9011 ± 0.0069 mPa·s, the speed of sound is on record as 1494.6 ± 0.86 m/s and the mass density is 997.455 ± 0.05 kg/m3. Also, for the setting “303.15 K, m1 = 0.005”, the surface tension liquid-gas worked out at 70.84 ± 0.69 mN/m, the viscosity was 0.8009 ± 0.0066 mPa·s, the speed of sound is reported as 1504.7 ± 0.86 m/s and the mass density is 996.059 ± 0.045 kg/m3. Under “308.15 K, m1 = 0.005”, the surface tension liquid-gas was 70.06 ± 0.69 mN/m, the viscosity is on record as 0.7225 ± 0.0063 mPa·s, the speed of sound was found to be 1516.2 ± 0.87 m/s and the mass density is given as 994.427 ± 0.051 kg/m3.

For `[Cl][Dy]([Cl])[Cl]` [dysprosium(III) chloride] + O, where the note is “298.15 K, m1 = 0.005”, the mass density turned out to be 998.006 ± 0.05 kg/m3.

As to `[Cl][Er]([Cl])[Cl]` [erbium trichloride] + O, the mass density (298.15 K, m1 = 0.005) came out at 998.051 ± 0.05 kg/m3.

Turning to `[Cl][Yb]([Cl])[Cl]` [ytterbium trichloride] + O, the mass density (298.15 K, m1 = 0.005) is 998.121 ± 0.05 kg/m3.
